# From paper PMC8283659 (ACS chemical neuroscience, 2020)
# Like-named read-outs stand apart in the source and are kept apart here.
# Columns and labels:
# DAT [1] = target: DAT (Rattus norvegicus, UniProt P23977); experiment: DAT radioligand binding assay; conditions: for pKi ± S.E.M. DAT [3H]WIN 35,428: mean ± S.E.M., 3 independent experiments
# SERT = SERT (Rattus norvegicus, UniProt P31652); experiment: SERT radioligand binding assay; conditions: for pKi ± S.E.M. SERT [3H]Citalopram: rat brain membranes (stem in methods), mean ± S.E.M., 3 independent experiments
# Sequence of SERT (P31652 whole entry): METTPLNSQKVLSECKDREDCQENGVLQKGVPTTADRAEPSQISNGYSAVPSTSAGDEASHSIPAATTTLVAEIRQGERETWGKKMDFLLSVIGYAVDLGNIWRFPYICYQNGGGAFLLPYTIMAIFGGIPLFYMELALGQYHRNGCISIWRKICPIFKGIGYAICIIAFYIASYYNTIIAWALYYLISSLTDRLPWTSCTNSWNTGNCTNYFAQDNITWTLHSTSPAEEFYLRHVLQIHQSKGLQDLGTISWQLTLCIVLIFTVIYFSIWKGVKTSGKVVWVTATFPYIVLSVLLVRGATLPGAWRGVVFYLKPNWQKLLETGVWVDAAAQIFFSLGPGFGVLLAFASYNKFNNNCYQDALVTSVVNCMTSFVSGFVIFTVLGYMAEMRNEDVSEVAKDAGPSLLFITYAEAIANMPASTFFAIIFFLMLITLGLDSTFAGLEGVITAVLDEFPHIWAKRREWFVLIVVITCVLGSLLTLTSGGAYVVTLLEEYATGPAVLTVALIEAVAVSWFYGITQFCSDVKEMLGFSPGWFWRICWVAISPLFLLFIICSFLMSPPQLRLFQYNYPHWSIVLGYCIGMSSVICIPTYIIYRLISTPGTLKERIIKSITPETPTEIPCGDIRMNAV
# DAT [2] = conditions: read-out: DAT Ki; cited from earlier work
# NET = NET (Rattus norvegicus, UniProt Q63380); experiment: NET radioligand binding assay
# Sequence of NET (Q63380 1-617): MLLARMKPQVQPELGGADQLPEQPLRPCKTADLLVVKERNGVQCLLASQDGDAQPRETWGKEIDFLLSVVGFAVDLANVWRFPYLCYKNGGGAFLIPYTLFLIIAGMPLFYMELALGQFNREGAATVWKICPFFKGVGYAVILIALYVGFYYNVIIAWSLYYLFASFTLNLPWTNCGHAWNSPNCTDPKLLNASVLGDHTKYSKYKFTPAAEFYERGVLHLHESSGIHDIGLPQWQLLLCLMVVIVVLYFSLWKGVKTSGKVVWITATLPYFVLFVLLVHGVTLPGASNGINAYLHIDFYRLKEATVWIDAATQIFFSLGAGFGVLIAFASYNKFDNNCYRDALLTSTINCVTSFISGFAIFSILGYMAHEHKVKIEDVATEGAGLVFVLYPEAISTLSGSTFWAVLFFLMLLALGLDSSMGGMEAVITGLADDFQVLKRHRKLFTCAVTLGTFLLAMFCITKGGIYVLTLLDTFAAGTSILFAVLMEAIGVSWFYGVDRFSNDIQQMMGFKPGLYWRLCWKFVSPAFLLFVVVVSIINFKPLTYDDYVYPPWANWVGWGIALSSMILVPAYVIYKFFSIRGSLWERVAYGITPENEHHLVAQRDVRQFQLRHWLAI
# human DAT (hDAT) = human DAT (hDAT) (Homo sapiens, UniProt Q01959); experiment: [3H]dopamine uptake inhibition in CAD cells transiently expressing hDAT; format: cell-based
# Sequence of human DAT (hDAT) (Q01959 whole entry): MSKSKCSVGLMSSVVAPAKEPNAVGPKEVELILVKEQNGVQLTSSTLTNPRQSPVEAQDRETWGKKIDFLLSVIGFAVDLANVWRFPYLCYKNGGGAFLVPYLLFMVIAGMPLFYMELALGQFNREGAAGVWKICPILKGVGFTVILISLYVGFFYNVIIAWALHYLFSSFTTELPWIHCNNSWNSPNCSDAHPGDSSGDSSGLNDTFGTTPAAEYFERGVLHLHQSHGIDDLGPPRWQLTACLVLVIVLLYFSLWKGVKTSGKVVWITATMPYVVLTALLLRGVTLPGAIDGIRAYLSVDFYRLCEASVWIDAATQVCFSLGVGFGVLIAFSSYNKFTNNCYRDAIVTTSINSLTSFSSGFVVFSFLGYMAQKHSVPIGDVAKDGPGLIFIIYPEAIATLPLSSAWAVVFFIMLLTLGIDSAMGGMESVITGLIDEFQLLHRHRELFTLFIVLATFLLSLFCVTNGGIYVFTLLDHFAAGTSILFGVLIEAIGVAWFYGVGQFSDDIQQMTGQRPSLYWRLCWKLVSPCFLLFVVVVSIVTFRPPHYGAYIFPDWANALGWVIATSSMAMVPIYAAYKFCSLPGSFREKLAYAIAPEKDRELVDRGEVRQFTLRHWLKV
# EGFP-hDAT = EGFP-hDAT (Homo sapiens, UniProt Q01959); experiment: TIRF microscopy of surface labeling of EGFP-hDAT-expressing CAD cells; format: cell-based; conditions: 10 nM ligand, 10 min, rt; fixed cells
# Sequence of EGFP-hDAT (Q01959 whole entry): as above
# [3] = read-out: Ki DAT [3H]WIN 35,428, rat striatum membranes, value in parentheses
# [4] = IC50 DAT [3H]DA, value in parentheses
# [5] = pIC50 ± S.E.M. DAT [3H]DA, 20 nM [3H]DA, 5 min, rt
# Sequence of DAT (Rattus norvegicus, UniProt P23977) (P23977 whole entry): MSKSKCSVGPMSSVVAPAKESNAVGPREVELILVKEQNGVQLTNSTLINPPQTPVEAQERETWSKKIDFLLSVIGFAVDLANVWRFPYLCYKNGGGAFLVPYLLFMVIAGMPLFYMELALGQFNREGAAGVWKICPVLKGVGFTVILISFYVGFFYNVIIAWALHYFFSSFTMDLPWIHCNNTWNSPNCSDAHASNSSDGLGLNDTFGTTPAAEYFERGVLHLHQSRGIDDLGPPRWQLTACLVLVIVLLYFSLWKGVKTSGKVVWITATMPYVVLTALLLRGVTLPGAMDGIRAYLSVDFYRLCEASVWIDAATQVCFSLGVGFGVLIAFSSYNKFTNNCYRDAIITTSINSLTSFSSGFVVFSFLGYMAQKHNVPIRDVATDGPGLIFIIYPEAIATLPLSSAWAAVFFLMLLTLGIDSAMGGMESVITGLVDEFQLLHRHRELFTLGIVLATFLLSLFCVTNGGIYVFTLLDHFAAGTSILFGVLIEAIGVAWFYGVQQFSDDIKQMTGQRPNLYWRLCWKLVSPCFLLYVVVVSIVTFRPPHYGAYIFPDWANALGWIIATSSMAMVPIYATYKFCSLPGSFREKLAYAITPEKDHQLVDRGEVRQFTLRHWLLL
SMILES,"pKi ± S.E.M. DAT [3H]WIN 35,428 (DAT [1]; rat striatum membranes)",Ki (DAT [1]; [3]) [nM],pKi ± S.E.M. SERT [3H]Citalopram (SERT),Ki (DAT [2]) [nM],Ki (DAT [1]) [nM],Ki (NET) [nM],Ki (SERT) [nM],IC50 (human DAT (hDAT); [4]) [nM],IC50 (human DAT (hDAT); [5]) [nM],"surface labeling of EGFP-hDAT-expressing CAD cells, TIRF microscopy (in words) (EGFP-hDAT)","pIC50 ± S.E.M. DAT [3H]DA (human DAT (hDAT); 20 nM [3H]DA, 5 min, rt)"
"COC(=O)[C@H]1[C@@H](c2ccc(Cl)c(Cl)c2)C[C@@H]2CC[C@H]1N2C [Compound 1, reference compound]",9.10 ± 0.23,0.8,7.99 ± 0.20,,,,,,,,
"CCN(CC)c1ccc2c(-c3ccc(S(=O)(=O)NCCCCCC(=O)NCCN4C5CCC4[C@@H](C(=O)OC)[C@@H](c4ccc(Cl)c(Cl)c4)C5)cc3S(=O)(=O)[O-])c3ccc(=[N+](CC)CC)cc-3oc2c1 (some centres unmarked) [Compound 2, reference compound]",7.79 ± 0.09,16,7.80 ± 0.08,18,,,,,,,
"COC(=O)[C@H]1[C@@H](c2ccc(Cl)c(Cl)c2)C[C@@H]2CC[C@H]1N2CCOCCOCCNC(=O)c1ccc(C(=O)[O-])c(-c2c3ccc(=[N+]4CCC4)cc-3oc3cc(N4CCC4)ccc23)c1 [Compound 3, 2-(3-(Azetidin-1-ium-1-ylidene)-6-(azetidin-1-yl)-3H-xanthen-9-yl)-4-((2-(2-(2-((1R,2S,3S,5S)-3-(3,4-dichlorophenyl)-2-(methoxycarbonyl)-8-azabicyclo[3.2.1]octan-8-yl)ethoxy)ethoxy)ethyl)carbamoyl)benzoate]",,,,,6.03,225,41.7,28,28.2,surface labeling was observed,
"COC(=O)[C@H]1[C@@H](c2ccc(Cl)c(Cl)c2)C[C@@H]2CC[C@H]1N2CCOCCOCCOCCOCCOCCNC(=O)c1ccc2c(c1)C1(OC2=O)c2ccc(N3CCC3)cc2[Si](C)(C)c2cc(N3CCC3)ccc21 [Compound 4, Methyl (1R,2S,3S,5S)-8-(1-(3,7-di(azetidin-1-yl)-5,5-dimethyl-3’-oxo-3’H,5H-spiro[dibenzo[b,e]siline-10,1’-isobenzofuran]-6’-yl)-1-oxo-5,8,11,14,17-pentaoxa-2-azanonadecan-19-yl)-3-(3,4-dichlorophenyl)-8-azabicyclo[3.2.1]octane-2-carboxylate]",7.55 ± 0.03,28,7.37 ± 0.05,,,,,,,surface labeling was observed,6.99 ± 0.15
"COC(=O)[C@H]1[C@@H](c2ccc(Cl)c(Cl)c2)C[C@@H]2CC[C@H]1N2CCOCCOCCNC(=O)c1ccc2c(c1)C1(OC2=O)c2ccc(N3CCC3)cc2[Si](C)(C)c2cc(N3CCC3)ccc21 [Compound 10, Methyl (1R,2S,3S,5S)-8-(2-(2-(2-(3,7-di(azetidin-1-yl)-5,5-dimethyl-3’-oxo-3’H,5H-spiro[dibenzo[b,e]siline-10,1’-isobenzofuran]-6’-carboxamido)ethoxy)ethoxy)ethyl)-3-(3,4-dichlorophenyl)-8-azabicyclo[3.2.1]octane-2-carboxylate]",,,,,112,468,153,1150,1150,,
"COC(=O)[C@H]1[C@@H](c2ccc(Cl)c(Cl)c2)C[C@@H]2CC[C@H]1N2CCN1CCN(CCCCNC(=O)c2ccc3c(c2)C2(OC3=O)c3ccc(N4CCC4)cc3[Si](C)(C)c3cc(N4CCC4)ccc32)CC1 [Compound 14, Methyl (1R,2S,3S,5S)-8-(2-(4-(4-(3,7-di(azetidin-1-yl)-5,5-dimethyl-3’-oxo-3’H,5H-spiro[dibenzo[b,e]siline-10,1’-isobenzofuran]-6’-carboxamido)butyl)piperazin-1-yl)ethyl)-3-(3,4-dichlorophenyl)-8-azabicyclo[3.2.1]octane-2-carboxylate]",,,,,38,1200,38,160,158,the labeling was very punctate,
